According to patent publication US20110053945A1, “SALTS OF 6-(5-CHLORO-2-PYRIDYL)-5-[(4-METHYL-1-PIPERAZINYL)CARBONYLOXY]-7-OXO-6,7-DIHY-DRO-5H-PYRROLO[3,4-B]PYRAZINE” (SEPRACOR INC., priority 2007, published 2011):
Counter-ions that a name gives are not always drawn.

How the values were obtained:
[1] = Aqueous solubility, equilibrated 24 hour suspension of the salt in water, HPLC; assay type: physicochemical; conditions: for pH: pH measured at saturation in water; for Solubility: water, 24 hour at ambient
Experimental: The aliquot was diluted and analyzed by HPLC. The data was compared to a standard curve generated from a set of solutions of known concentrations. The standard curve and the samples were analyzed using a HPLC using the following conditions: • Column: Symmetry C-18, 5 um, 15 cm×3.9 mm (Waters) • Mobile Phase: 0.05 M KH2PO4-0.01 M Hexanesulfonic Acid/THF (1000:125) (Apparent pH 5.0) • Column Temp: 20-30° C. • Flow Rate: 1.0 mL/min • Wavelength: 305 nm • Run Time: 15 min (zopiclone retention time is 9.5-10 min)

[2] = Intrinsic dissolution, USP 28 method <1087>; assay type: physicochemical; conditions: isotonic 50 mM acetate buffer pH 4.5, 37° C., 50 rpm; for Intrinsic dissolution Average: average of two runs
Experimental: Intrinsic dissolution was determined using USP 28 method <1087> (United States Pharmacopeia, The National Formulary, USP 28, 28th edition, Rockville, […]., 2005). Preparation of each test sample was performed as per USP 28 method <1087> by weighing and transferring the material to the die cavity and compressing for 1 minute at the minimum compression pressure necessary to form a nondisintegrating compacted pellet. The dissolution media used was isotonic 50 mM acetate buffer (pH 4.5) at 37° C. and speed was set at 50 rpm. Each run was halted at 5 min, irrespective of the percent dissolved. Each salt was run in duplicate.

Compound | pH [1] | Solubility [1] | Intrinsic dissolution Run 1 [2] [mgA/cm^2/min] | Intrinsic dissolution Run 2 [2] [mgA/cm^2/min] | Intrinsic dissolution Average [2] [mgA/cm^2/min]
CN1CCN(C(=O)OC2c3nccnc3C(=O)N2c2ccc(Cl)cn2)CC1 (stereo in doubt) [(R)-Mandelate, (S)-Zopiclone (R)-Mandelate] | 5.1 | 25 mgA/mL | 8.2 | 8.9 | 8.5
CN1CCN(C(=O)O[C@H]2c3nccnc3C(=O)N2c2ccc(Cl)cn2)CC1 [D-Malate, (S)-Zopiclone D-Malate] | 4.0 | 36 mgA/mL | 20.0 | 19.8 | 19.9
CN1CCN(C(=O)O[C@H]2c3nccnc3C(=O)N2c2ccc(Cl)cn2)CC1 [Free base, (S)-(6-(5-chloro-2-pyridyl)-5-[(4-methyl-1-piperazinyl)carbonyloxy]-7-oxo-6,7-dihydro-5H-pyrrolo[3,4-b]pyrazine), reference compound] | 7.6 | 0.2^1 mgA/mL | 0.6 | 0.5 | 0.5
CN1CCN(C(=O)O[C@H]2c3nccnc3C(=O)N2c2ccc(Cl)cn2)CC1 [Mesylate, (S)-Zopiclone Mesylate] | 4.9 | >86 mgA/mL |  |  | 
CN1CCN(C(=O)O[C@H]2c3nccnc3C(=O)N2c2ccc(Cl)cn2)CC1 [Succinate, (S)-Zopiclone Succinate] |  | 100 mgA/mL |  |  | 
